1 compound from US20040152710A1, “Use of norepinephrine reuptake modulators for preventing and treating vasomotor symptoms” (priority 2002, published 2004) can be followed below.

Assay [1] relates to tail skin temperature of ovariectomized rats. As to the kind of experiment: OVX-induced thermoregulatory dysfunction telemetry model. Particulars: 10 mg/kg sc.
Procedure: (§1) Dosing: All doses were prepared based on mg/kg.
(§2) Animals: Ovariectomized Sprague-Dawley rats (180-220 g) were obtained from a commercial vendor (Taconic, Germantown, N.Y.) and individually housed under 12 hours light/dark cycle in a room maintained at 25° C. Animals were provided with standard rat chow and water ad libitum.
A temperature and physical activity transmitter (PhysioTel TA10TA-F40, Data Sciences International) was implanted subcutaneously in the dorsal scapular region and the tip of the temperature probe was tunneled subcutaneously 2.5 cm beyond the base of the tail. After a 7-day recovery period, TST readings were continuously recorded for the remainder of the study. Tail skin temperature readings were collected from each animal every 5 minutes with values obtained over a 10 second sampling period. The day before test day, an average baseline TST value was calculated for each animal by averaging temperature readings recorded during the 12 hours active (dark) phase. In these studies, animals were dosed approximately 1 hour prior to the onset of dark cycle.
Evaluation of a compound's ability to restore normal lowering of TST in the telemetry model was analyzed using hourly TST values calculated for each animal by averaging the 12 temperature readings obtained every 5 minutes over that recording time. To analyze ΔTST in the telemetry model, a two factors repeated measure ANOVA was performed. The model used for analysis was ΔTST=GRP (group)+HR (hours)+GRP*HR+BASELINE. Thus, the reported least squares means are the expected mean values as if both groups had the same baseline value. Post-hoc tests of hourly GRP*HR samples are t-tests of the difference between groups for each hour. To be conservative, a result was not considered significant unless the p-value was <0.025. All analyses were performed using SAS PROC MIXED (SAS, Carey, N.C.).
In assay [2] the test system is naloxone-induced flush in morphine-dependent ovariectomized rats. As to the kind of experiment: Morphine-dependent rat model of hot flush (naloxone-induced flush, MD model).
Procedure: as §1, §2
Morphine-dependent model: Ovariectomized rats were injected once daily for 8-9 days with vehicle to minimize stress responses and then administered compound(s) on test day. On day 4 of dosing, morphine dependence was induced by sc implantation of two slow-release morphine pellets (75 mg/pellet) in the dorsal scapular region. […] Four to six days after implantation, morphine withdrawal was induced with an opioid antagonist (naloxone) that causes a transient increase in TST. […] Rats were mildly sedated with ketamine and a thermistor connected to a MacLab data acquisition system was taped to the base of the tail. Tail skin temperature was then monitored continuously for 35 minutes to establish a baseline temperature. Naloxone was subsequently administered and TST was measured for an additional 35 to 60 minutes (total recording time 70 to 95 minutes).
Statistical analysis: To analyze changes in TST induced by naloxone in morphine-dependent rats, all data were analyzed using a two factor repeated measure ANOVA for “treatment” and “time.” The model was fit to test whether there were significant differences in the responses between treatment groups. Naloxone administration is designated as time zero and data is then analyzed at 5 minute intervals. The first three readings were averaged and used as baseline TST scores. All data were analyzed as ΔTST (TST for each time point-baseline). Multiple comparisons (LSD p-values) among the treatment groups at each time point were used for the analysis. Efficacy of hot flush abatement was determined by evaluating statistical differences at the peak response time of 15 minutes post-nalbxone, when the maximal change in TST is observed. A customized SAS-excel (SAS Institute, Cary, N.C.) application was used applying a four parameter logistic model to determine ED50 values. A logistic dose transformation was performed on ΔTST. Maximum flush (ΔTST at 15 minutes post-naloxone) was used in the analysis and the minimum was locked at zero. […] Statisticians in the Biometrics Department (Wyeth Research, Collegeville, Pa.) developed a customized JMP application.

Molecules are shown by their SMILES.

For the compound `CNCCCN1c2ccccc2CCc2ccccc21` [desipramine], in assay [1], the “changes in TST over time” value is reported as “significantly decreases TST over the entire length of the active phase”. Also, the “abatement of naloxone-induced flush, alone” value in assay [2] (1 mg/kg sc, 40 minutes prior to naloxone) is given as “approximately 50%”. The hot flush abatement in assay [2] (3 mg/kg desipramine co-administered with 10 mg/kg SRI) is listed as 100%. In addition, the “abatement of naloxone-induced hot flush” value in assay [2] (10 mg/kg sc) is reported as 90.4%; in assay [2] (30 mg/kg sc), 96.7%. The “ED50 value of desipramine in the presence of fluoxetine” value in assay [2] (co-administered fluoxetine 10 mg/kg sc) is reported as “did not change”. Moreover, the “abatement of naloxone-induced flush in combination with atipamezole” value in assay [2] (desipramine 1 mg/kg with atipamezole 0.3 mg/kg, sc) is given as “additive effect”. The “abatement of naloxone-induced hot flush when SRI co-administered” value in assay [2] (desipramine 10 mg/kg with fluoxetine 10 mg/kg) is reported as “significantly enhanced abatement of naloxone-induced hot flush”. In assay [2] (low dose, naloxone-induced hot flush), the “reduction of TST compared to vehicle treated rats” value is listed as 50%. Further, in assay [2] (sc, 1 hour prior to naloxone, 15 minutes post-naloxone), the “effect on naloxone-induced flush at maximal flush (dose response)” value is given as “dose-dependently abates the naloxone-induced flush”.
